# Experiments:
# Assay type in all cases: in vivo
# [1] = system: winter barley (Hordeum vulgare); experiment: Test B postemergence plant response
# Procedure, shortened: (§1)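 Plants at the 1- to 4-leaf stage (2 to 18 cm tall), grown in pots of peat moss/vermiculite medium with wetting agent and starter nutrients, received postemergence applications of test chemicals. After 13 to 15 days in a greenhouse, injury was rated visually against untreated controls on a 0 (no effect) to 100 (complete control) scale.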
# [2] = system: chickweed (Stellaria media); experiment: Test B postemergence plant response
# Procedure, shortened: as §1
# [3] = system: windgrass (Apera spica-venti); experiment: Test B postemergence plant response; conditions: for Plant response rating, Windgrass: Postemergence
# Procedure, shortened: as §1
# [4] = system: canarygrass (Phalaris minor); experiment: Test B postemergence plant response
# Procedure, shortened: as §1
# [5] = system: pigweed (Amaranthus retroflexus); experiment: Test B pre-/postemergence plant response
# Source text: (§2) Seeds of plant species selected from blackgrass (Alopecurus myosuroides), downy bromegrass (Bromus tectorum), green foxtail (Setaria viridis), Italian ryegrass (Lolium multiflorum), wheat (Triticum aestivum), wild oat (Avena fatua), deadnettle (henbit deadnettle, Lamium amplexicaule), galium (catchweed bedstraw, Galium aparine), bermudagrass (Cynodon dactylon), Surinam grass (Brachiaria decumbens), cocklebur (Xanthium strumarium), corn (Zea mays), large crabgrass (Digitaria sanguinalis), woolly cupgrass (Eriochloa villosa), giant foxtail (Setaria faberii), goosegrass (Eleusine indica), johnsongrass (Sorghum halepense), kochia (Kochia scoparia), lambsquarters (Chenopodium album), morningglory (Ipomoea coccinea), nightshade (eastern black nightshade, Solanum ptycanthum), yellow nutsedge (Cyperus esculentus), pigweed (Amaranthus retroflexus), ragweed (common ragweed, Ambrosia elatior), Russian thistle (Salsola kali), soybean (Glycine max), sunflower (common oilseed sunflower, Helianthus annuus) and velvetleaf (Abutilon theophrasti) were planted into a blend of loam soil and sand and treated preemergence with test compounds formulated in a non-phytotoxic solvent mixture which included a surfactant.
# (§3) At the same time, plants selected from these crop and weed species and also winter barley (Hordeum vulgare), canarygrass (Phalaris minor), chickweed (Stellaria media) and windgrass (Apera spica-venti) were planted in pots containing Redi-Earth® planting medium (Scotts Company, 14111 Scottslawn Road, Marysville, Ohio 43041) comprising spaghnum peat moss, vermiculite, wetting agent and starter nutrients and treated with postemergence applications of some of the test chemicals formulated in the same manner. Plants ranged in height from 2 to 18 cm (1- to 4-leaf stage) for postemergence treatments.
# (§4) Treated plants and controls were maintained in a greenhouse for 13 to 15 days, after which time all treated plants were visually evaluated and compared to controls. Plant response ratings, summarized in Table B, are based on a scale of 0 to 100 where 0 is no effect and 100 is complete control. A dash (-) response means no test result.
# [6] = system: velvetleaf (Abutilon theophrasti); experiment: Test B pre-/postemergence plant response
# Source text: as §2, §3, §4
# soybean (Glycine max) = experiment: Test B pre-/postemergence plant response
# Source text: as §2, §3, §4
# [7] = system: goosegrass (Eleusine indica); experiment: Test B pre-/postemergence plant response
# Source text: as §2, §3, §4
# [8] = system: johnsongrass (Sorghum halepense); experiment: Test B pre-/postemergence plant response
# Source text: as §2, §3, §4
# corn (Zea mays) = experiment: Test B pre-/postemergence plant response
# Source text: as §2, §3, §4
# [9] = system: giant foxtail (Setaria faberii); experiment: Test B pre-/postemergence plant response
# Source text: as §2, §3, §4
# [10] = system: yellow nutsedge (Cyperus esculentus); experiment: Test B pre-/postemergence plant response
# Source text: as §2, §3, §4
# [11] = system: green foxtail (Setaria viridis); experiment: Test B pre-/postemergence plant response
# Source text: as §2, §3, §4
# [12] = system: lambsquarters (Chenopodium album); experiment: Test B pre-/postemergence plant response
# Source text: as §2, §3, §4
# [13] = 62 g ai/ha, postemergence, 0 is no effect, 100 is complete control, 13 to 15 days
# [14] = Postemergence, 31 g ai/ha, 0 to 100 scale (0 no effect, 100 complete control)
# [15] = Postemergence, 125 g ai/ha, scale 0 to 100 (0 no effect, 100 complete control)
# [16] = Postemergence, 250 g ai/ha, scale 0 to 100 (0 no effect, 100 complete control)
# [17] = Postemergence, 31 g ai/ha, scale 0 to 100 (0 no effect, 100 complete control)
# [18] = Postemergence, 62 g ai/ha, scale 0 (no effect) to 100 (complete control), 13 to 15 days
# [19] = Postemergence, 125 g ai/ha, visual rating after 13 to 15 days, scale 0 (no effect) to 100 (complete control)
# [20] = Postemergence, 250 g ai/ha, scale 0 to 100
# [21] = 250 g ai/ha, Preemergence, 0 to 100 scale
# [22] = Preemergence, 31 g ai/ha, scale 0 to 100 (0 no effect, 100 complete control)
# [23] = Preemergence, 125 g ai/ha, 0 to 100 scale
# [24] = Preemergence, 62 g ai/ha, scale 0 to 100 (0 no effect, 100 complete control)
smiles,measurement,setting,value
COCCn1c(-c2cccc(F)c2)ncc(C(=O)C2=C(O)CCCC2=O)c1=O [Compound 123],Barley plant response rating (0 to 100 scale),[1]; [13],10
same,"Plant response rating, Barley",[1]; [14],5
same,"Plant response rating, Barley",[1]; [15],25
same,"Plant response rating, Barley",[1]; [16],50
same,Chickweed plant response rating (0 to 100 scale),[2]; [13],75
same,"Plant response rating, Chickweed",[2]; [14],70
same,"Plant response rating, Chickweed",[2]; [15],95
same,"Plant response rating, Chickweed",[2]; [16],100
same,Windgrass plant response rating (0 to 100 scale),[3]; [13],60
same,"Plant response rating, Windgrass","[3]; 31 g ai/ha, 0 to 100 scale (0 no effect, 100 complete control)",30
same,"Plant response rating, Windgrass","[3]; 125 g ai/ha, scale 0 to 100 (0 no effect, 100 complete control)",80
same,Canarygrass plant response rating (0 to 100 scale),[4]; [13],40
same,"Plant response rating, Canarygrass",[4]; [14],25
same,"Plant response rating, Canarygrass",[4]; [15],55
same,"Plant response rating, Canarygrass",[4]; [16],85
same,Pigweed plant response rating (0 to 100 scale),[5]; [13],98
same,"Plant response rating, Pigweed",[5]; [14],80
same,"Plant response rating, Pigweed",[5]; [15],100
same,"Plant response rating, Pigweed",[5]; [16],100
same,Velvetleaf plant response rating (0 to 100 scale),[6]; [13],90
same,"Plant response rating, Velvetleaf",[6]; [14],80
same,"Plant response rating, Velvetleaf",[6]; [15],95
same,"Plant response rating, Velvetleaf",[6]; [16],100
same,Soybean plant response rating (0 to 100 scale),soybean (Glycine max); [13],75
same,"Plant response rating, Soybean",soybean (Glycine max); [14],60
same,"Plant response rating, Soybean",soybean (Glycine max); [15],85
same,"Plant response rating, Soybean",soybean (Glycine max); [16],90
same,Goosegrass plant response rating (0 to 100 scale),[7]; [13],65
same,"Plant response rating, Goosegrass",[7]; [14],65
same,"Plant response rating, Goosegrass",[7]; [15],80
same,"Plant response rating, Goosegrass",[7]; [16],85
same,Johnsongrass plant response rating (0 to 100 scale),[8]; [13],65
same,"Plant response rating, Johnsongrass",[8]; [14],35
same,"Plant response rating, Johnsongrass",[8]; [15],75
same,"Plant response rating, Johnsongrass",[8]; [16],90
same,Corn plant response rating (0 to 100 scale),corn (Zea mays); [13],70
same,"Plant response rating, Corn",corn (Zea mays); [14],35
same,"Plant response rating, Corn",corn (Zea mays); [15],75
same,"Plant response rating, Corn",corn (Zea mays); [16],80
same,"Foxtail, Giant plant response rating (0 to 100 scale)",[9]; [13],75
same,"Plant response rating, Foxtail, Giant",[9]; [14],65
same,"Plant response rating, Foxtail, Giant",[9]; [15],80
same,"Plant response rating, Foxtail, Giant",[9]; [16],85
same,"Nutsedge, Yellow plant response rating (0 to 100 scale)",[10]; [13],75
same,"Plant response rating, Nutsedge, Yellow",[10]; [14],65
same,"Plant response rating, Nutsedge, Yellow",[10]; [15],75
same,"Plant response rating, Nutsedge, Yellow",[10]; [16],80
same,"Foxtail, Green plant response rating (0 to 100 scale)",[11]; [13],60
same,"Plant response rating, Foxtail, Green",[11]; [14],50
same,"Plant response rating, Foxtail, Green",[11]; [15],85
same,"Plant response rating, Foxtail, Green",[11]; [16],90
same,Lambsquarters plant response rating (0 to 100 scale),[12]; [13],95
same,"Plant response rating, Lambsquarters",[12]; [14],80
same,"Plant response rating, Lambsquarters",[12]; [15],98
same,"Plant response rating, Lambsquarters",[12]; [16],98
O=C1CCCC(O)=C1C(=O)c1cnc(-c2ccccc2)n(-c2cccc(Br)c2)c1=O [Compound 38],"Plant response rating, Barley",[1]; [17],0
same,"Plant response rating, Barley",[1]; [18],0
same,"Plant response rating, Barley",[1]; [19],0
same,Barley plant response rating,[1]; [20],35
same,"Plant response rating, Chickweed",[2]; [17],85
same,"Plant response rating, Chickweed",[2]; [18],90
same,"Plant response rating, Chickweed",[2]; [19],100
same,Chickweed plant response rating,[2]; [20],100
same,"Plant response rating, Windgrass","[3]; 62 g ai/ha, scale 0 (no effect) to 100 (complete control), 13 to 15 days",80
same,"Plant response rating, Windgrass","[3]; 125 g ai/ha, visual rating after 13 to 15 days, scale 0 (no effect) to 100 (complete control)",85
same,"Plant response rating, Canarygrass",[4]; [17],10
same,"Plant response rating, Canarygrass",[4]; [18],10
same,"Plant response rating, Canarygrass",[4]; [19],10
same,Canarygrass plant response rating,[4]; [20],45
same,"Plant response rating, Pigweed",[5]; [21],100
same,"Plant response rating, Pigweed",[5]; [18],98
same,"Plant response rating, Pigweed",[5]; [19],98
same,"Plant response rating, Pigweed",[5]; [22],100
same,Pigweed plant response rating,[5]; [23],100
same,"Plant response rating, Velvetleaf",[6]; [21],100
same,"Plant response rating, Velvetleaf",[6]; [18],100
same,"Plant response rating, Velvetleaf",[6]; [19],100
same,"Plant response rating, Velvetleaf",[6]; [22],55
same,Velvetleaf plant response rating,[6]; [23],98
same,"Plant response rating, Soybean",soybean (Glycine max); [21],75
same,"Plant response rating, Soybean",soybean (Glycine max); [18],85
same,"Plant response rating, Soybean",soybean (Glycine max); [19],90
same,"Plant response rating, Soybean",soybean (Glycine max); [22],0
same,Soybean plant response rating,soybean (Glycine max); [23],0
same,"Plant response rating, Goosegrass",[7]; [21],100
same,"Plant response rating, Goosegrass",[7]; [18],85
same,"Plant response rating, Goosegrass",[7]; [19],90
same,Goosegrass plant response rating,[7]; [20],95
same,"Plant response rating, Goosegrass",[7]; [22],95
same,Goosegrass plant response rating,[7]; [23],100
same,"Plant response rating, Johnsongrass",[8]; [21],95
same,"Plant response rating, Johnsongrass",[8]; [18],75
same,"Plant response rating, Johnsongrass",[8]; [19],95
same,Johnsongrass plant response rating,[8]; [20],100
same,"Plant response rating, Johnsongrass",[8]; [22],10
same,"Plant response rating, Johnsongrass",[8]; [24],80
same,Johnsongrass plant response rating,[8]; [23],85
same,"Plant response rating, Corn",corn (Zea mays); [21],0
same,"Plant response rating, Corn",corn (Zea mays); [17],55
same,"Plant response rating, Corn",corn (Zea mays); [18],70
same,"Plant response rating, Corn",corn (Zea mays); [19],75
same,Corn plant response rating,corn (Zea mays); [20],90
same,"Plant response rating, Corn",corn (Zea mays); [22],0
same,"Plant response rating, Corn",corn (Zea mays); [24],0
same,Corn plant response rating,corn (Zea mays); [23],0
same,"Plant response rating, Foxtail, Giant",[9]; [21],95
same,"Plant response rating, Foxtail, Giant",[9]; [17],95
same,"Plant response rating, Foxtail, Giant",[9]; [18],98
same,"Plant response rating, Foxtail, Giant",[9]; [19],100
same,"Foxtail, Giant plant response rating",[9]; [20],100
same,"Plant response rating, Foxtail, Giant",[9]; [22],0
same,"Plant response rating, Foxtail, Giant",[9]; [24],40
same,"Foxtail, Giant plant response rating",[9]; [23],80
same,"Plant response rating, Nutsedge, Yellow",[10]; [21],80
same,"Plant response rating, Nutsedge, Yellow",[10]; [18],0
same,"Plant response rating, Nutsedge, Yellow",[10]; [19],15
same,"Plant response rating, Nutsedge, Yellow",[10]; [22],10
same,"Nutsedge, Yellow plant response rating",[10]; [23],70
same,"Plant response rating, Foxtail, Green",[11]; [21],100
same,"Plant response rating, Foxtail, Green",[11]; [17],85
same,"Plant response rating, Foxtail, Green",[11]; [18],90
same,"Plant response rating, Foxtail, Green",[11]; [19],95
same,"Foxtail, Green plant response rating",[11]; [20],95
same,"Plant response rating, Foxtail, Green",[11]; [22],20
same,"Plant response rating, Foxtail, Green",[11]; [24],30
same,"Foxtail, Green plant response rating",[11]; [23],85
same,"Plant response rating, Lambsquarters",[12]; [21],100
same,"Plant response rating, Lambsquarters",[12]; [18],95
same,"Plant response rating, Lambsquarters",[12]; [19],100
same,Lambsquarters plant response rating,[12]; [20],100
same,"Plant response rating, Lambsquarters",[12]; [22],98
same,"Plant response rating, Lambsquarters",[12]; [24],98
same,Lambsquarters plant response rating,[12]; [23],100

# From US8952024B2, “Herbicidal pyrimidone derivatives” (E I du Pont de Nemours and Company, priority 2009, dated 2015)
